Data as given in patent US10501479B2, “Benzenesulfonyl-asymmetric ureas and medical uses thereof” (HELSINN HEALTHCARE SA, priority 2016, dated 2019).

Experiments:
[1] = biological target: T1, recombinant human ghrelin receptor (HEK293/GRLN) (Homo sapiens, UniProt Q92847); experiment: Ghrelin inverse agonist potency (EC50) with IP-1 (IP-One HTRF) assay; type: cell-based; conditions: inverse agonist potency, IP-1 assay; read-out: EC50 (Activity)
T1 construct: expressed in transfected cells
Outline: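 IP-1 accumulation was measured by HTRF (IP1-d2/Tb-cryptate, 620/665 nm read after 1 hour at room temperature) following 1 hour of compound treatment at 37° C. Cells were HEK293 stably expressing human ghrelin receptor, plated a day earlier on Matrigel. Inverse agonist potency was reported as EC50.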

[2] = biological target: T2, GHSR-1a (HEK293/GHSR1a cell line) (Homo sapiens, UniProt Q92847); experiment: Ghrelin antagonist potency (IC50) with calcium FLIPR assay, ghrelin 10 nM; type: cell-based; conditions: ghrelin antagonist potency, read-out: IC50 (Activity)
T2 construct: expressed in transfected cells; host or cells: HEK293/GHSR1a cell line
Outline: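 The cells were plated a day ahead and loaded with a calcium-sensitive dye. Test compound was then added and incubated 15 min, followed by ghrelin. Antagonist potency was calculated from inhibition of the response to 10 nM ghrelin, and agonist potency from the calcium rise caused by compound alone.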

[3] = Metabolic stability in human liver microsomes; type: in vitro ADME
Outline: (§1)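 First, microsomes and compound are preincubated 5 min at 37 °C in pH 7.4 phosphate buffer. Next, an NADPH regenerating system starts the reaction. Then aliquots are quenched cold at 10, 30 and 90 min, centrifuged and analysed by LC-MS/MS.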

[4] = Metabolic stability in dog liver microsomes; type: in vitro ADME
Protocol: (§2) Metabolic Stability Study
(§3) The metabolic stability of compounds in human, dog, rat and mouse liver microsomes was performed according the experimental conditions reported below:
(§4) • a) Prepare the following 5 stock solutions: • 1. Test compound stock solutions: dilute 10 mM solution of dextromethorphan (Dtr) in DMSO, 10 mM solution of diphenhydramine (DPA) in DMSO, 10 mM solution of omeprazole (Ome) in DMSO, 10 mM solution of verapamil (Ver) in DMSO, and 10 mM of an inverse agonist compound in DMSO to 0.25 mM solution each with acetonitrile/water (70/30). • 2. Buffer: 100 mM potassium phosphate Buffer (PBS) at pH 7.4 • 3. Liver microsomes (20 mg/ml): Thaw in 37° C. water bath quickly • 4. 2000 μL: of NADPH regenerating system (1.3 mM). Place this system on ice before use:
(§5) • 5. […] The test compound concentration in the wells, measured by LC-MS/MS, represents the concentration at time=0. • f) To determine the test compound concentration when t≠0, pre-incubate the NADPH regenerating system and the incubation plate containing the remaining 320 μL of incubation mixture (microsomes protein and test compound) for 5 minutes at 37° C. • g) Start the incubation reaction by adding 80 μL NADPH regenerating system to each well containing the remaining 320 μL incubation mixture. • h) After 10 min., 30 min., and 90 min. of incubation at 37° C., transfer 100 μL of the incubation mixture (microsomes protein, test compound, and NADPH) into the wells of a stop plate pre-filled with 300 μL of the cold quench solution. Shake well. • i) Centrifuge the stop plate at 5000×g for 10 minutes. Collect and dilute the supernatant 3 times with distilled water. Sample and analyze the test compound concentration for all the wells by LC-MS/MS. Animal PK Studies via i.v. (intravenous), p.o. (orally) and s.c. (subcutaneous) administrations

[5] = Metabolic stability in rat liver microsomes; type: in vitro ADME
Protocol: as §2, §3, §4, §5

[6] = Metabolic stability in mouse liver microsomes; type: in vitro ADME
Outline: as §1

[7] = Animal PK study in mouse via i.v., p.o. and s.c. administration; type: in vivo
Outline: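 Plasma drug levels were measured by LC-MS/MS after acetonitrile precipitation, with blood drawn up to 24 h post-dose (from 0.083 h i.v./s.c., 0.25 h oral) in mice or rats. Animals received one dose by gavage in DMSO/methylcellulose, or by tail-vein or subcutaneous injection in DMSO/HP-β-cyclodextrin.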

T1 sequence (Q92847 whole entry): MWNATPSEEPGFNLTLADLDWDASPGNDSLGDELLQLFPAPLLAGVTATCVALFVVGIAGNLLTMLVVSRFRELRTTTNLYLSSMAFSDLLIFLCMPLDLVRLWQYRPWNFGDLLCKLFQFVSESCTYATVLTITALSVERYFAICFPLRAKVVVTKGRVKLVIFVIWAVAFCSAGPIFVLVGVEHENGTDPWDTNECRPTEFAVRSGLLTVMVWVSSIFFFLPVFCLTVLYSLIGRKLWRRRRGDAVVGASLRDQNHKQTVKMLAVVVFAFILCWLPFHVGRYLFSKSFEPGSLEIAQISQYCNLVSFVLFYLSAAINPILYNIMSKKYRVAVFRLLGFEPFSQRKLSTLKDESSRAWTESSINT
T2 sequence (Q92847 whole entry): as above

SMILES | EC50 [1] [nM] | IC50 [2] [nM] | Metabolic Stability Study H = human [3] [µL/min/mg] | Metabolic Stability Study D = dog [4] [µL/min/mg] | Metabolic Stability Study R = rat [5] [µL/min/mg] | Metabolic Stability Study M = mouse [6] [µL/min/mg] | PK F [7] [%] | PK CLiv ([7]; i.v.) [L/h/kg] | PK Vdiv ([7]; i.v.) [L/kg] | PK t1/2iv ([7]; i.v.) [h] | PK CLpo ([7]; p.o.) [L/h/kg] | PK Vdpo ([7]; p.o.) [L/kg] | PK t1/2po ([7]; p.o.) [h]
C[C@H](NC(=O)Nc1ccc(S(=O)(=O)Nc2ccc(CC(C)(C)N)cc2)cc1)c1cccc(Cl)c1Cl.Cl [H0943, (S)-N-(4-(2-amino-2-methylpropyl)phenyl)-4-(3-(1-(2,3-dichlorophenyl)ethyl)ureido) benzenesulfonamide] | 2.5 | 7.8 | 10.6 | < 10 | 11.7 | < 10 | – | – | – | – | – | – | –
CC(C)(N)Cc1ccc(NS(=O)(=O)c2ccc(NC(=O)NCc3ccccc3)cc2)cc1.Cl [H0993, N-(4-(2-amino-2-methylpropyl)phenyl)-4-(3-benzylureido) benzenesulfonamide] | 21 | 288 | 18.5 | < 10 | 15.1 | 14.3 | 0.4 | 2.15 | 4.31 | 1.39 | 438.1 | 2550 | 4.03
CN(C)C(C)(C)Cc1ccc(NS(=O)(=O)c2ccc(NC(=O)NCc3cccc(Cl)c3Cl)cc2)cc1 [H0995, 4-(3-(2,3-dichlorobenzyl)ureido)-N-(4-(2-(dimethylamino)-2-methylpropyl)phenyl) benzenesulfonamide] | 2.52 | 32.1 | 54.5 | 52.7 | 92.4 | 194.6 | – | – | – | – | – | – | –
CC(C)(N)Cc1ccc(CS(=O)(=O)c2ccc(NC(=O)NCc3cccc(Cl)c3Cl)cc2)cc1 [H0996, 1-(4-((4-(2-amino-2-methylpropyl)benzyl)sulfonyl)phenyl)-3-(2,3-dichlorobenzyl)urea] | 64 | 461 | 27.5 | < 10 | 77.8 | 125.4 | – | – | – | – | – | – | –
C[C@@H](NC(=O)Nc1ccc(S(=O)(=O)Cc2ccc3c(c2)CNC3)cc1)c1ccccc1 [H1214, (R)-1-(4-((isoindolin-5-ylmethyl)sulfonyl)phenyl)-3-(1-phenylethyl)urea] | 147 | 278 | 16.6 | < 10 | 18 | 21.4 | – | – | – | – | – | – | –
